Where two headings read alike, the source gives them in different places.

The text below walks through data of PMC3692405, “Disease-associated mutations in CNGB3 promote cytotoxicity in photoreceptor-derived cells” (Molecular Vision, 2013).

What all share (type): biochemical
The target in test [1] is T1, CNGA3 plus CNGB3 T383fsX channels (Homo sapiens, UniProt Q16281).
T1 construct: expressed in transfected cells; host or cells: Xenopus laevis oocytes injected with cRNA transcribed from pGEMHE constructs
T1 sequence (Q16281 1-694): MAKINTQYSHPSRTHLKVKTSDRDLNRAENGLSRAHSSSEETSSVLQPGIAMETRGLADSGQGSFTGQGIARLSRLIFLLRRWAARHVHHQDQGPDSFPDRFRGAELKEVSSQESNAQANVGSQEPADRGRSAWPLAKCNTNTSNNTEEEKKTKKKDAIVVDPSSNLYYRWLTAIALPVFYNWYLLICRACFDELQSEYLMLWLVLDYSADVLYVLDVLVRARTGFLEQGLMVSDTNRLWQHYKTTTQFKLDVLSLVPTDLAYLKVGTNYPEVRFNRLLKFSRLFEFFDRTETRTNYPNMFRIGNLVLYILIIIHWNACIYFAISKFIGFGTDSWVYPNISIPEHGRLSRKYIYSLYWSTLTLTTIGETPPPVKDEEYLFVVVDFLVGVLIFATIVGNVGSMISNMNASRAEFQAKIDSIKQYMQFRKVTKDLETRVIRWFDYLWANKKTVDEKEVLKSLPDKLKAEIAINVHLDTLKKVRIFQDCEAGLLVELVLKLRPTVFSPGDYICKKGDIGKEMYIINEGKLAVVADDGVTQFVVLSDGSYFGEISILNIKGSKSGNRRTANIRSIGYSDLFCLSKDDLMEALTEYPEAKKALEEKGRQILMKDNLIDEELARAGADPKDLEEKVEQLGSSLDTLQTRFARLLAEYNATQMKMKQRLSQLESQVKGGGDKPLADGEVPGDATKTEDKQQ
The test is described as follows: Inside-out patch-clamp recording of channels expressed in Xenopus oocytes (CNGB3 T383fsX). How it is done:
(§1) For heterologous expression in Xenopus laevis oocytes, identical amounts of cDNA were linearized using SphI or NheI, and capped cRNA was transcribed in vitro using the T-7 RNA polymerase mMESSAGE mMACHINE® kit (Ambion, Austin, TX). cRNA concentrations and relative amounts were determined by denaturing gel electrophoresis and KODAK 1D image analysis software (Rochester, NY), as well as by spectrophotometry. […] Oocytes were incubated in ND96 (96 mM NaCl, 2 mM KCl, 1.8 mM CaCl2, 1 mM MgCl2, and 5 mM HEPES, pH 7.6, supplemented with 10 μg/ml gentamycin).
(§2) Two to seven days after microinjection of cRNA, patch-clamp experiments were performed using the inside-out configuration with an Axopatch 200B amplifier (Axon Instruments, Foster City, CA). Recordings were made at 20–23 °C. Data were acquired using Pulse software (HEKA Elektronik, Lambrecht, Germany). Current traces were elicited by voltage steps from a holding potential of 0 mV to +80 mV, then to −80 mV and back to 0 mV. Initial pipette resistances were 0.4–0.8 megaohms. Intracellular and extracellular solutions contained 130 mM NaCl, 0.2 mM EDTA, and 3 mM HEPES (pH 7.2). Intracellular solutions were exchanged using an RSC-160 rapid solution changer (Molecular Kinetics, Indianapolis, IN). Currents in the absence of cyclic nucleotides were subtracted. For channel activation by CPT-cGMP or CPT-cAMP, dose–response data were fitted with the Hill equation, I/Imax=([cNMP]^h/(K1/2^h + [cNMP]^h)), where I is the current amplitude at +80 mV, Imax is the maximum current elicited by saturating concentration of ligand, [cNMP] is the ligand concentration, K1/2 is the apparent ligand affinity, and h is the Hill slope. We measured sensitivity to block by L-cis-diltiazem (RBI, Natick, MA) applied to the intracellular face of the patch in the presence of 0.1 μM CPT-cGMP. Data were fit with a modified Hill equation in the form I blocker/I=(K1/2^h/(K1/2^h + [blocker]^h)). Data were analyzed using Igor (Wavemetrics, Lake Oswego, OR), SigmaPlot, and SigmaStat (Systat Software Inc., San Jose, CA). All values are reported as the mean±standard error of the mean of n experiments unless otherwise indicated. Statistical significance was determined using a Student t test or Mann–Whitney rank sum test, and a p value of <0.05 was considered significant.

In test [2] the target is T2, CNGA3 plus CNGB3-F525N channels (Homo sapiens, UniProt Q16281+Q9NQW8, F525N).
T2 construct: expressed in transfected cells; host or cells: Xenopus laevis oocytes injected with cRNA transcribed from pGEMHE constructs
T2 sequence (Q16281 1-694): T1 sequence (Q16281 1-694)
T2 sequence (Q9NQW8 1-809 F525N): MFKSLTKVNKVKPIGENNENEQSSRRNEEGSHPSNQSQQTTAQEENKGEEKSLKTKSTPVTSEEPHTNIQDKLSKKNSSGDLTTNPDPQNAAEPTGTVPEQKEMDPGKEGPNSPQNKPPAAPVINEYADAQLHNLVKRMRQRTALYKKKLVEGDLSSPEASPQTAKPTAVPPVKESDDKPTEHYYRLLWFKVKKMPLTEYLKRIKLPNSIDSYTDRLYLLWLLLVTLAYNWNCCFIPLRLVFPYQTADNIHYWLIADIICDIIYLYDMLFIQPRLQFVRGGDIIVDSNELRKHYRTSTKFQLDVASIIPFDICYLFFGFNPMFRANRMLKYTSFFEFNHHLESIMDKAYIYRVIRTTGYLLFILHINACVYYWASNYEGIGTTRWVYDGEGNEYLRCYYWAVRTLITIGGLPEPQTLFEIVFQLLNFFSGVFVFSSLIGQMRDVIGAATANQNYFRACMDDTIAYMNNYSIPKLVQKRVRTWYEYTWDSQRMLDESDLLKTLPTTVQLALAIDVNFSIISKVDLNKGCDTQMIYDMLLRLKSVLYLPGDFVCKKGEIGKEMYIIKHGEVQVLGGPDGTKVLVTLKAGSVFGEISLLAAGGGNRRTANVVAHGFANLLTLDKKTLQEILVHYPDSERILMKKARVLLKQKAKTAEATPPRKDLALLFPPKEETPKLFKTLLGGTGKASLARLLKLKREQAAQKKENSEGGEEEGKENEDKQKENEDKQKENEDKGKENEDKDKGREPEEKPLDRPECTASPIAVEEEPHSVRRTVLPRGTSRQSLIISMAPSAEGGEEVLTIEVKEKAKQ
The experiment in a line: Inside-out patch-clamp recording of channels expressed in Xenopus oocytes (CNGB3 F525N). On the procedure: as §1, §2
(In general: Patch clamp records ionic current or voltage across a cell membrane.)

The target of test [3] is T3, homomeric CNGA3-only channels (Homo sapiens, UniProt Q16281).
T3 construct: expressed in transfected cells; host or cells: Xenopus laevis oocytes injected with cRNA transcribed from pGEMHE constructs
T3 sequence (Q16281 1-694): T1 sequence (Q16281 1-694)
The test is described as follows: Inside-out patch-clamp recording of channels expressed in Xenopus oocytes (CNGA3 only). The conditions noted are these: +80 mV, Hill fit, mean±SEM, n=9. On the procedure:
as §1
Two to seven days after microinjection of cRNA, patch-clamp experiments were performed using the inside-out configuration with an Axopatch 200B amplifier (Axon Instruments, Foster City, CA). Recordings were made at 20–23 °C. Data were acquired using Pulse software (HEKA Elektronik, Lambrecht, Germany). Current traces were elicited by voltage steps from a holding potential of 0 mV to +80 mV, then to −80 mV and back to 0 mV. […] We measured sensitivity to block by L-cis-diltiazem (RBI, Natick, MA) applied to the intracellular face of the patch in the presence of 0.1 μM CPT-cGMP. […] Data were analyzed using Igor (Wavemetrics, Lake Oswego, OR), SigmaPlot, and SigmaStat (Systat Software Inc., San Jose, CA). […] Statistical significance was determined using a Student t test or Mann–Whitney rank sum test, and a p value of <0.05 was considered significant.

Where [4] appears, read: representative patch, Figure 5A.
The mark [5] stands for this setting: representative patch, Figure 1B.

On to `Nc1ncnc2c1nc(Sc1ccc(Cl)cc1)n2[C@@H]1O[C@@H]2COP(=O)(O)O[C@H]2[C@H]1O` [CPT-cAMP, CPT-adenosine 3′,5′-cyclic monophosphate], for which the “relative agonist efficacy Imax, CPT-cAMP/Imax, CPT-cGMP” value in test [1] (+80 mV, CPT-cAMP 100 μM vs CPT-cGMP 4 μM, mean±SEM, n=8) was 0.07±0.01; in test [2] (+80 mV, CPT-cAMP 100 μM vs CPT-cGMP 4 μM, mean±SEM, n=15), 0.49±0.04. Besides, the “Hill slope h, CPT-cAMP activation” value in test [1] (Hill fit, mean±SEM, n=9) is recorded as 1.8±0.1; in test [2] (Hill fit, mean±SEM, n=15) it was 1.4±0.08. The EC50 was found to be 29800 ± 1900 nM in test [1] (Hill fit, mean±SEM, n=9, read-out: apparent affinity K1/2, CPT-cAMP (channel activation)); 27900 nM in test [1] (representative patch, Figure 5A, read-out: K1/2, cAMP, representative dose-response for CPT-cAMP activation); 13800 ± 1400 nM in test [2] (Hill fit, mean±SEM, n=15, read-out: apparent affinity K1/2, CPT-cAMP (channel activation)); 10800 nM in test [2] (representative patch, Figure 5A, read-out: K1/2,CPT-cAMP, representative dose-response). In addition, the “Hill slope h, CPT-cAMP, representative dose-response” value in test [1] (setting [4]) is on record as 1.6; in test [2] (setting [4]), 1.0.
Regarding `Nc1nc2c(nc(Sc3ccc(Cl)cc3)n2[C@@H]2O[C@@H]3COP(=O)(O)O[C@H]3[C@H]2O)c(=O)[nH]1` [CPT-cGMP, 8-(4-chlorophenylthio) guanosine 3′,5′-cyclic monophosphate], the “Hill slope h, CPT-cGMP activation” value in test [1] (+80 mV, Hill fit, mean±SEM, n=8) was determined as 2.2±0.1; in test [3] it was 2.2±0.1; in test [2] (+80 mV, Hill fit, mean±SEM), 1.8±0.04. The EC50 in test [1] (+80 mV, Hill fit, mean±SEM, n=8, read-out: apparent CPT-cGMP affinity K1/2, CPT-cGMP (channel activation)) worked out at 105 ± 7.3 nM; in test [1] (representative patch, Figure 1B, read-out: K1/2, cGMP, representative dose-response for CPT-cGMP activation) it was 111 nM; in test [3] (read-out: apparent CPT-cGMP affinity K1/2, CPT-cGMP (channel activation)), 114 ± 7.9 nM; in test [2] (+80 mV, Hill fit, mean±SEM, read-out: apparent CPT-cGMP affinity K1/2, CPT-cGMP (channel activation)) it was 86.8 ± 10.6 nM; in test [2] (representative patch, Figure 1B, read-out: K1/2,CPT-cGMP, representative dose-response), 79 nM. Also, the “maximum patch current density (Imax/area)” value was found to be 86.6±17.0 pA/μm^2 in test [1] (+80 mV, saturating CPT-cGMP (4 μM), mean±SEM, n=9) and 80.3±18.6 pA/μm^2 in test [2] (+80 mV, saturating CPT-cGMP (4 μM), mean±SEM, n=15). Also, the “Hill slope h, CPT-cGMP, representative dose-response” value was determined as 1.9 in test [1] (setting [5]) and 1.7 in test [2] (setting [5]).
